Entries after “also recorded” stand apart in the source; their conditions may differ.
Assays:
Assay type in all cases: biochemical
β4GALT1 [1] = assay: commercial Phosphate Glycosyltransferase Activity kit (R&D Systems), malachite green phosphate detection; settings: UDP-Gal glycosyl donor, coupling phosphatase; FIG. 4
Description: The commercial Phosphate Glycosyltransferase Activity kit was purchased from R&D Systems. The principle of the assay along with the materials provided were utilized according to manufacturer's conditions. In brief, a diphosphonucleotide sugar (such as UDP-Gal) is used as a glycosyl donor and mixed with a glycosyl acceptor, a phosphatase, and a glycosyltransferase. Glycosyltransferase activity exposes a phosphate of the glycosyl donor to phosphatase activity, releasing free phosphate. The amount of phosphate present should be directly proportional to the amount of formed glycosylated product. The kit also uses a specific phosphatase to remove an inorganic phosphate quantitatively from UDP. The released inorganic phosphate is subsequently quantitated by sensitive colorimetric malachite green phosphate detecting reagents. The amount of inorganic phosphate released by the coupling phosphatase should be equal to the nucleotide sugar consumed or glycoconjugate product generated. Therefore, the rate of inorganic phosphate products should reflect the kinetics of a glycosyltransferase reaction (specific activity of the enzyme). The steps as performed are outlined in FIG. 3.
To estimate the amount of UDP produced in the enzymatic reaction, a phosphate standard curve was established according to manufacturer's conditions. […]

β4GALT1 [2] = assay: HILIC-UV/MS based assay of β4GALT1 activity (method of Montasser et al.)
Description: Montasser et al. attempted to assay enzyme activity using a method involving quantification of the β4GALT1 substrate UDP-Gal, by measuring its peak area using hydrophilic interaction chromatography-ultraviolet detection-mass spectroscopy. The method as outlined in Montasser et al. was followed, using HILIC-UV-MS to quantitate the decrease of UDP-Gal as a measure of β4GALT1 activity. In particular, the decrease of UDP-Gal could be measured using UV detection and the corresponding increase of GlcNAc-Gal could be measured using MS.
The glycosyl donor was 1.7 nmol UDP-Gal; the glycosyltransferase was 1.1 pmol β4GALT1; and the glycosyl acceptor was 500 nmol GlcNAc. All samples were analyzed using an Acquity UPLC I-Class coupled with Vion IMS Q-Tof (Waters, Milford, MA, USA). A Waters Acquity UPLC Glycoprotein BEH Amide chromatographic column (300 Å, 150 mm×2.1 mm, 1.7 μm) was used to separate the analytes with a column temperature of 45° C. and a flow rate of 0.2 mL/minute. Mobile phase A was 50 mM ammonium acetate at a pH 7.5, and mobile phase B was 5% (v/v) 25 mM ammonium acetate at a pH 7.5 in acetonitrile. A 1 μL aliquot of each mixture (wildtype and mutant β4GALT1) was injected for analysis.
The difference in activity between the wildtype and mutant β4GALT1 was tested using paired two-sided Student's t-test.

β4GALT1 [3] = assay: HILIC-FLR-MS based assay of β4GALT1 activity with 2-AB-G0F labeling substrate; settings: 1.1 pmol B4GALT1, 1.7 nmol UDP-Gal, 10 pmol 2-AB-G0F, room temperature, 0 to 60 minutes; FIG. 8, 12, 13
Method: Specifically, the enzymatic activities were measured using uridine diphosphate galactose (UDP-Gal) as a donor substrate and a labeled glycan (2-AB-G0F) as the labeling substrate. The experiment was carried out over eight different time points.
The enzymatic reaction was initiated by adding 1.1 pmol of B4GALT1 into a mixture of 1.7 nmol UDP-Gal (the glycosyl donor) and 10 pmol of 2-AB-G0F (the glycosyl acceptor), and the mixture was incubated at room temperature for 2, 5, 10, 15, 25, 40, and 60 minutes. The sample representing the initial time point (0 min) was prepared by omitting the enzyme. This HILIC-FLR-MS based method was used to quantitate both the decrease of UDP-Gal and the increase in formation of the products (G1F/G2F).
All samples were analyzed using an Acquity UPLC I-Class coupled with Vion IMS Q-Tof (Waters, Milford, MA, USA). A Waters Acquity UPLC Glycoprotein BEH Amide chromatographic column (300 Å, 150 mm×2.1 mm, 1.7 μm) was used to separate the analytes with a column temperature of 60° C. and a flow rate of 0.5 mL/minute. Mobile phase A was 50 mM ammonium acetate at a pH 4.4, and mobile phase B was acetonitrile. A 5 μL aliquot of each mixture was injected onto the column for HILIC-MS analysis. The sample run time was 12 minutes.
The samples were monitored using a UV detector at a wavelength of 280 nm and fluorescence with excitation at a wavelength of 330 nm and emission at a wavelength of 420 nm. The Waters Vion IMS Q-Tof mass spectrometer was operated in positive mode and the mass spectra were acquired with a m/z range between 600 and 2000. UDP-Gal was quantitated and the data were collected and processed using UNIFI software (Waters).

Beta-1,4-galactosyltransferase 1 [wildtype β4GALT1]
specific activity (enzyme activity) determined using a commercial kit (β4GALT1 [1]): less active than β4GALT1 with N352S mutation
decrease in UDP-Gal (UV peak area) (β4GALT1 [2]; 1.7 nmol UDP-Gal, 1.1 pmol β4GALT1, 500 nmol GlcNAc, 2, 5, 10, 15, 25, 40, and 60 minutes, FIG. 5): significantly more
increase in the amounts of the product (GlcNAc-Gal) over time, MS (β4GALT1 [2]; 2, 5, 10, 15, 25, 40, and 60 minutes, FIG. 6): significantly more
activity suggested by decrease in UDP-Gal (β4GALT1 [2]; wildtype compared to mutant, FIG. 5): higher activity
fluorescent signal for 2-AB-G0F (labeling substrate) over time (β4GALT1 [3]): reduction in the signal; also recorded: declines substantially over time
signal for the products 2-AB-G1F and 2-AB-G2F over time (β4GALT1 [3]): increase substantially over time

B1: β4GALT1 with N352S mutation: missense variant (rs551564683, p.Asn352Ser) in β4GALT1 (protein, UniProt P15291 1-398, looked up, variant N352S)
chain: MRLREPLLSGSAAMPGASLQRACRLLVAVCALHLGVTLVYYLAGRDLSRLPQLVGVSTPLQGGSNSAAAIGQSSGELRTGGARPPPPLGASSQPRPGGDSSPVVDSGPGPASNLTSVPVPHTTALSLPACPEESPLLVGPMLIEFNMPVDLELVAKQNPNVKMGGRYAPRDCVSPHKVAIIIPFRNRQEHLKYWLYYLHPVLQRQQLDYGIYVINQAGDTIFNRAKLLNVGFQEALKDYDYTCFVFSDVDLIPMNDHNAYRCFSQPRHISVAMDKFGFSLPYVQYFGGVSALSKQQFLTINGFPNNYWGWGGEDDDIFNRLVFRGMSISRPNAVVGRCRMIRHSRDKKNEPSPQRFDRIAHTKETMLSDGLNSLTYQVLDVQRYPLYTQITVDIGTPS
fluorescent signal for 2-AB-G0F (labeling substrate) over time (β4GALT1 [3]): less so
signal for the products 2-AB-G1F and 2-AB-G2F over time (β4GALT1 [3]): less so
